Data on 15 compounds can be found in patent US12590062B2, “PD-1/PD-L1 inhibitors” (Gilead Sciences, Inc., priority 2017, dated 2026).

Structures are written as SMILES.

For orientation: AC50 means the concentration at which the activity in the assay is half-maximal. A word on the IC50: it is the midpoint of a concentration-inhibition curve. What is called EC50 is the concentration giving half of the maximal effect.

The target in one experiment is T1, PD-L1 (Homo sapiens, UniProt Q9NZQ7).
T1 construct: determine if they can specifically dimerize the extracellular domains of PD-L1
The experiment is described as follows: PD-L1/PD-L1 dimerization biochemical protein-protein interaction assay (ALPHA). The format is binding. As to conditions: compound-induced PD-L1 dimerization, head prints '1 nM' (0.5 nM His-tagged PD-L1 and 0.5 nM FLAG-tagged PD-L1), read-out: AC50 PDL1 Dimer Alpha 1 nM. In short, it runs like this:
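After 2 h at 25 °C with compound, His- and FLAG-tagged PD-L1 ECDs (each 0.5 nM final; 25 mM Hepes pH 7.4, 150 mM NaCl) were detected by sequential anti-His acceptor and anti-FLAG donor bead incubations. Dose-response curves fitted to four-parameter equation for AC50.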

In a further experiment the target is PD-1/PD-L1 (Homo sapiens, UniProt Q9NZQ7). The experiment is described as follows: PD-1/PD-L1 biochemical protein-protein interaction assay (ALPHA). The class given is binding. As to conditions: 0.3 nM His tagged PD-L1, 2.5 nM biotinylated Fc-PD-1, 60 minutes at 25° C., read-out: IC50 PD-L1-PD-1 Alpha IC50-mono PD-L1-fcP-D1. In short, it runs like this:
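Bead proximity read-out: compound-driven loss of ALPHA signal between anti-His acceptor and streptavidin donor beads (20 μg/mL acceptor). Proteins: 0.3 nM His-PD-L1, 2.5 nM biotin-Fc-PD-1, final. 60 min, 25° C, Hepes pH 7.4 buffer. IC50 via four-parameter dose-response fit.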

Another experiment addresses T2, PD-1/PD-L1 interaction (Homo sapiens, UniProt Q9NZQ7).
T2 construct: expressed in transfected cells; host or cells: CHO cells (aAPC-PD-L1) co-cultured with Jurkat cells overexpressing PD-1 and an NFAT-luciferase reporter
As to the kind of experiment: PD-1/PD-L1 NFAT reporter co-culture assay. The format is cell-based. The conditions noted are these: Jurkat PD-1 NFAT-luciferase cells co-cultured with aAPC-PD-L1 CHO cells, 6 hrs at 37° C.; read-out: EC50 NFAT Luciferase. In short, it runs like this:
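Jurkat cells overexpressing PD-1 with NFAT-luciferase mixed with compounds and plated onto CHO aAPCs expressing anti-CD3 and PD-L1, RPMI with 2% FBS. Co-culture 6 h at 37 °C; luminescence read with ONE-Glo. EC50 from four-parameter fit.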

T2 sequence (Q9NZQ7 19-290): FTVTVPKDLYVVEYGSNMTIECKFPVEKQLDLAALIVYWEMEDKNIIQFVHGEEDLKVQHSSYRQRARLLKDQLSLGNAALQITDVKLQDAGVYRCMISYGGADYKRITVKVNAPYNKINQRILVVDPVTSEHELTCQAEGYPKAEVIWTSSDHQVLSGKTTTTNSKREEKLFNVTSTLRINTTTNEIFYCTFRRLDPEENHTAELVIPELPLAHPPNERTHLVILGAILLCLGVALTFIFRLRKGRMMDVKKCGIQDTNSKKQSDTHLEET
Chain of PD-1/PD-L1 (Q9NZQ7 19-238 limits assumed): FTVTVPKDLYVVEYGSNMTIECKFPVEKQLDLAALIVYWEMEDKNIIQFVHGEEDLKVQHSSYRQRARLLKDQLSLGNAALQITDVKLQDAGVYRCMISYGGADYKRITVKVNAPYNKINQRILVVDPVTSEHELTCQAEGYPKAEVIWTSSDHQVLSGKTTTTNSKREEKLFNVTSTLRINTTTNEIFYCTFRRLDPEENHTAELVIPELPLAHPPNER
T1 sequence (Q9NZQ7 19-238 limits assumed): as above
T1 sequence (Q9NZQ7 19-238 limits assumed): as above

`Cc1c(-c2ccc(CN3CC[C@@H](O)C3)cc2)cccc1-c1cccc(-c2ccc(CNC[C@@H](O)CC(=O)O)c(OC(F)(F)F)c2)c1C` [Example 325, (S)-3-hydroxy-4-(((4′″-(((R)-3-hydroxypyrrolidin-1-yl)methyl)-2′,2″-dimethyl-3-(trifluoromethoxy)-[1,1′:3′,1″:3″,1′″-quaterphenyl]-4-yl)methyl)amino)butanoic acid]: the half-maximal activity concentration (AC50) on PD-L1 amounted to 633 nM. The concentration for half-maximal inhibition (IC50) at PD-1/PD-L1 worked out at 1.38 nM. Moreover, at PD-1/PD-L1 interaction, the EC50 was 2580 nM.
The like results for `Cc1c(COc2cc(OCc3cncc(C#N)c3)c(CNC[C@@H](O)CC(=O)O)cc2Cl)cccc1-c1cccc(-c2ccc(CNCc3cncc(C#N)c3)cc2)c1C` [Example 326, (S)-4-((5-chloro-2-((5-cyanopyridin-3-yl)methoxy)-4-((4″-((((5-cyanopyridin-3-yl)methyl)amino)methyl)-2,2′-dimethyl-[1,1′:3′,1″-terphenyl]-3-yl)methoxy)benzyl)amino)-3-hydroxybutanoic acid] were, in that order, 1210 nM, 1.15 nM and 439 nM.
Consider `Cc1c(COc2nc(OC[C@@H]3CCC(=O)N3)c(CNC[C@@H](O)CC(=O)O)cc2Br)cccc1-c1cccc(COc2nc(OC[C@@H]3CCC(=O)N3)c(CNC[C@@H](O)CC(=O)O)cc2Br)c1C` [Example 328, (3S,3′S)-4,4′-((((((2,2′-dimethyl-[1,1′-biphenyl]-3,3′-diyl)bis(methylene))bis(oxy))bis(5-bromo-2-(((S)-5-oxopyrrolidin-2-yl)methoxy)pyridine-6,3-diyl))bis(methylene))bis(azanediyl))bis(3-hydroxybutanoic acid)], for which, at PD-L1, the AC50 is 241 nM. In addition, the IC50 at PD-1/PD-L1 stood at 0.142 nM. For the same compound, on PD-1/PD-L1 interaction, the concentration giving a half-maximal response (EC50) was determined as 146 nM.
`Cc1c(COc2cc(OCc3cncc(C#N)c3)c(CN[C@@](C)(CO)C(=O)O)cc2Cl)cccc1-c1cccc(-c2nnc(CCN)o2)c1C` [Example 329, (S)-2-((4-((3′-(5-(2-aminoethyl)-1,3,4-oxadiazol-2-yl)-2,2′-dimethyl-[1,1′-biphenyl]-3-yl)methoxy)-5-chloro-2-((5-cyanopyridin-3-yl)methoxy)benzyl)amino)-3-hydroxy-2-methylpropanoic acid]: the concentration at half-maximal activity (AC50) on PD-L1 came to 290 nM. On PD-1/PD-L1, the IC50 was 0.284 nM. In addition, on PD-1/PD-L1 interaction, the EC50 worked out at 466 nM.
For the compound `Cc1c(COc2cc(OCc3cncc(C#N)c3)c(CNC[C@@H](O)CC(=O)O)cc2Cl)cccc1-c1cccc(-c2cn(C3CCNCC3)nn2)c1C` [Example 330, (S)-4-((5-chloro-2-((5-cyanopyridin-3-yl)methoxy)-4-((2,2′-dimethyl-3′-(1-(piperidin-4-yl)-1H-1,2,3-triazol-4-yl)-[1,1′-biphenyl]-3-yl)methoxy)benzyl)amino)-3-hydroxybutanoic acid], the half-maximal activity concentration (AC50) at PD-L1 turned out to be 209 nM. The half-inhibitory concentration (IC50) on PD-1/PD-L1 stood at 0.188 nM. For the same compound, the EC50 at PD-1/PD-L1 interaction was 1640 nM.
`Cc1c(COc2cc(OCc3cncc(C#N)c3)c(CNC[C@@H](O)CC(=O)O)cc2Cl)cccc1-c1cccc(-c2cn(CC3CCNC3)nn2)c1C` (stereo partly drawn) [Example 331]: on PD-L1, the half-maximal activity concentration (AC50) stood at 500 nM. At PD-1/PD-L1, the IC50 stood at 0.273 nM. Moreover, at PD-1/PD-L1 interaction, the concentration for a half-maximal effect (EC50) was determined as 232 nM.
Regarding `C[C@@](CO)(NCc1cc(Cl)c(O[C@H]2CCc3c(-c4cccc(-c5ccc(OCCNCCO)cc5)c4Cl)cccc32)nc1OCc1cc(C#N)cc(C#N)c1)C(=O)O` [Example 332, (S)-2-(((5-chloro-6-(((S)-4-(2-chloro-4′-(2-((2-hydroxyethyl)amino)ethoxy)-[1,1′-biphenyl]-3-yl)-2,3-dihydro-1H-inden-1-yl)oxy)-2-((3,5-dicyanobenzyl)oxy)pyridin-3-yl)methyl)amino)-3-hydroxy-2-methylpropanoic acid], the AC50 at PD-L1 stood at 18.7 nM. Moreover, the half-inhibitory concentration (IC50) on PD-1/PD-L1 turned out to be 0.114 nM. In addition, the EC50 at PD-1/PD-L1 interaction stood at 47 nM.
For the compound `Cc1c(COc2cc(OCc3cncc(C#N)c3)c(CN3CC[C@@H](O)C3)cc2Cl)cccc1-c1cccc(-c2ccc(CNCCCCC(=O)O)cc2)c1C` [Example 333, (R)-5-(((3″-((2-chloro-5-((5-cyanopyridin-3-yl)methoxy)-4-((3-hydroxypyrrolidin-1-yl)methyl)phenoxy)methyl)-2′,2″-dimethyl-[1,1′:3′,1″-terphenyl]-4-yl)methyl)amino)pentanoic acid], the AC50 at PD-L1 is 203 nM. Further, the concentration for half-maximal inhibition (IC50) at PD-1/PD-L1 came out at 0.289 nM. For the same compound, at PD-1/PD-L1 interaction, the half-maximal effective concentration (EC50) was determined as 481 nM.
`Cc1c(COc2cc(OCc3cncc(C#N)c3)c(CNC[C@@H](O)CC(=O)O)cc2Cl)cccc1-c1cccc(-c2ccc(CN3CC[C@H](O)C3)cc2)c1C` [Example 335, (S)-4-((5-chloro-2-((5-cyanopyridin-3-yl)methoxy)-4-((4″-(((S)-3-hydroxypyrrolidin-1-yl)methyl)-2,2′-dimethyl-[1,1′:3′,1″-terphenyl]-3-yl)methoxy)benzyl)amino)-3-hydroxybutanoic acid]: the concentration at half-maximal activity (AC50) on PD-L1 came to 231 nM. For the same compound, the IC50 on PD-1/PD-L1 was 0.414 nM. Also, the EC50 on PD-1/PD-L1 interaction amounted to 437 nM.
As to `Cc1c(COc2cc(OCc3cncc(C#N)c3)c(CN[C@@](C)(CO)C(=O)O)cc2Cl)cccc1-c1cccc(-c2ccc(CN3CC[C@H](O)C3)cc2)c1C` [Example 336, (S)-2-((5-chloro-2-((5-cyanopyridin-3-yl)methoxy)-4-((4″-(((S)-3-hydroxypyrrolidin-1-yl)methyl)-2,2′-dimethyl-[1,1′:3′,1″-terphenyl]-3-yl)methoxy)benzyl)amino)-3-hydroxy-2-methylpropanoic acid], at PD-L1, the AC50 was 109 nM. Also, at PD-1/PD-L1, the half-inhibitory concentration (IC50) is 0.124 nM. Besides, the EC50 at PD-1/PD-L1 interaction is 398 nM.
For `Cc1c(COc2cc(OCc3cncc(C#N)c3)c(CN[C@H]3CC[C@@H](C(=O)O)C3)cc2Cl)cccc1-c1cccc(-c2ccc(OCCNCCO)cc2)c1C` [Example 338, (1R,3S)-3-((5-chloro-2-((5-cyanopyridin-3-yl)methoxy)-4-((4″-(2-((2-hydroxyethyl)amino)ethoxy)-2,2′-dimethyl-[1,1′:3′,1″-terphenyl]-3-yl)methoxy)benzyl)amino)cyclopentane-1-carboxylic acid], the concentration at half-maximal activity (AC50) on PD-L1 was found to be 140 nM. The IC50 at PD-1/PD-L1 turned out to be 0.179 nM. Also, at PD-1/PD-L1 interaction, the 50% effective concentration (EC50) came to 1060 nM.
Turning to `C[C@@](CO)(NCc1cc(Cl)c(OCc2cccc(-c3cccc(-c4ccc(OCCNCCO)cc4)c3Cl)c2Cl)nc1OCc1cncc(C#N)c1)C(=O)O` [Example 340, (S)-2-(((5-chloro-2-((5-cyanopyridin-3-yl)methoxy)-6-((2,2′-dichloro-4″-(2-((2-hydroxyethyl)amino)ethoxy)-[1,1′:3′,1″-terphenyl]-3-yl)methoxy)pyridin-3-yl)methyl)amino)-3-hydroxy-2-methylpropanoic acid], on PD-L1, the AC50 was found to be 27.8 nM. For the same compound, the IC50 on PD-1/PD-L1 was found to be 0.087 nM. Besides, the concentration for a half-maximal effect (EC50) on PD-1/PD-L1 interaction was found to be 217 nM.
Consider `Cc1c(COc2cc(OCc3cncc(C#N)c3)c(CNC[C@@H](O)CC(=O)O)cc2Cl)cccc1-c1cccc(-c2ccc(OCCNC[C@@H](O)CC(=O)O)cc2)c1Cl` [Example 341, (S)-4-((4-((4″-(2-(((S)-3-carboxy-2-hydroxypropyl)amino)ethoxy)-2′-chloro-2-methyl-[1,1′:3′,1″-terphenyl]-3-yl)methoxy)-5-chloro-2-((5-cyanopyridin-3-yl)methoxy)benzyl)amino)-3-hydroxybutanoic acid], for which the concentration at half-maximal activity (AC50) on PD-L1 worked out at 38.3 nM. In addition, the IC50 on PD-1/PD-L1 came out at 0.064 nM. Moreover, at PD-1/PD-L1 interaction, the concentration giving a half-maximal response (EC50) is 284 nM.
`Cc1c(COc2cc(OCc3cncc(C#N)c3)c(CN[C@@](C)(CO)C(=O)O)cc2Cl)cccc1-c1cccc(-c2ccc(C3CCNC3)cc2)c1C` (stereo partly drawn) [Example 342, (S)-2-((5-chloro-2-((5-cyanopyridin-3-yl)methoxy)-4-((2,2′-dimethyl-4″-((R)-pyrrolidin-3-yl)-[1,1′:3′,1″-terphenyl]-3-yl)methoxy)benzyl)amino)-3-hydroxy-2-methylpropanoic acid and(S)-2-((5-chloro-2-((5-cyanopyridin-3-yl)methoxy)-4-((2,2′-dimethyl-4″-((S)-pyrrolidin-3-yl)-[1,1′:3′,1″-terphenyl]-3-yl)methoxy)benzyl)amino)-3-hydroxy-2-methylpropanoic]: the AC50 on PD-L1 came out at 118 nM. For the same compound, at PD-1/PD-L1, the IC50 is 0.4 nM. The EC50 on PD-1/PD-L1 interaction worked out at 447 nM.
As for `Cc1c(COc2cc(OCc3cncc(C#N)c3)c(CN[C@@](C)(CO)C(=O)O)cc2Cl)cccc1-c1cccc(-c2ccc3c(c2)CC(N)C3)c1C` (stereo partly drawn) [Example 343, (S)-2-((4-((3′-((R)-2-amino-2,3-dihydro-1H-inden-5-yl)-2,2′-dimethyl-[1,1′-biphenyl]-3-yl)methoxy)-5-chloro-2-((5-cyanopyridin-3-yl)methoxy)benzyl)amino)-3-hydroxy-2-methylpropanoic acid and(S)-2-((4-((3′-((S)-2-amino-2,3-dihydro-1H-inden-5-yl)-2,2′-dimethyl-[1,1′-biphenyl]-3-yl)methoxy)-5-chloro-2-((5-cyanopyridin-3-yl)methoxy)benzyl)amino)-3-hydroxy-2-methylpropanoic acid], the half-maximal activity concentration (AC50) at PD-L1 was 81.1 nM. At PD-1/PD-L1, the 50% inhibitory concentration (IC50) is 0.218 nM. In addition, the EC50 at PD-1/PD-L1 interaction is 158 nM.
